The values that follow are results of earlier work, collected in patent US20180177735A1, “Stable Pharmaceutical Composition Of Phytonadione And A Novel Process For Preparation Thereof” (Amneal Pharmaceuticals Company GmbH, priority 2016, published 2018).

Where two headings read alike, the source gives them in different places.

Turning to `CC1=C(C/C=C(\C)CCC[C@H](C)CCC[C@H](C)CCCC(C)C)C(=O)c2ccccc2C1=O` [Phytonadione], the solubility entry by setting is: (in chloroform) “soluble”; (in ethanol) “slightly soluble (1 g of material requires 100 to 1000 ml of solute to dissolve)”; (in water) “insoluble”.
